Holding throughout (type): in vivo, Wistar strain rats
Holding throughout (conditions): cabergoline oral 0.05 mg/kg b.w. over 14 days

The subject of assay [1] is experimental model for diabetic retinopathy. Nature of the assay: Blood-retinal barrier permeability (dextran method) and retinal thickness (OCT) in streptozocin model for diabetic retinopathy. The method, then: (§1) The Effects of Administration of Cabergoline on Permeability of Blood-Retinal Barrier and on Retinal Thickness in an Experimental Model for Diabetic Retinopathy The research was conducted on an experimental model of Wistar strain rats. In order to cause diabetes, the rats were injected intraperitoneally with streptozocin at a dose of 60 mg/kg b.w. After 30 days since administration of streptozocin blood glucose level was checked and only rats with the blood glucose levels of over 250 mg % were qualified for the experiment. In the course of the experiment, the following parameters were assessed: permeability of blood-retinal barrier using the dextran method (BRB) and the thickness of the retina using optical coherence tomography (OCT). In the experiment, 4 experimental groups were compared: healthy animals without cabergoline administration, healthy animals with cabergoline administration (14 days of use), animals with diabetes without cabergoline, animals with diabetes with cabergoline (14 days of use). Cabergoline was administered to the animals in oral form at a dose of 0.05 mg/kg b.w. over 14 days.

The test system of assay [2] is experimental model for central retinal vein occlusion. Nature of the assay: Blood-retinal barrier permeability (dextran method) and retinal thickness (OCT) in laser model for central retinal vein occlusion. The method, then:
as §1, with “and” for “and on”, “Central Retinal Vein Occlusion.” for “Diabetic Retinopathy”, “Central retinal vein occlusion was performed using” for “In order to cause diabetes, the rats were injected intraperitoneally with streptozocin at”, “532 nm laser.” for “dose of 60 mg/kg b.w. After 30 days since administration of streptozocin blood glucose level was checked and only rats with the blood glucose levels of over 250 mg % were qualified for the experiment.”, “central retinal vein occlusion” for “diabetes”

Assay [3] deals with experimental model for choroidal neovascularization (CNV). Nature of the assay: Blood-retinal barrier permeability (dextran method) and retinal thickness (OCT) in laser model for choroidal neovascularization (CNV). How it is done: as §1, with “and” for “and on”, “Choroidal Neovascularization (CNV).” for “Diabetic Retinopathy”, “Choroidal neovascularization (CNV) was performed by photocoagulation of” for “In order to cause diabetes,”, “retina using” for “rats were injected intraperitoneally with streptozocin at”, “532 nm laser.” for “dose of 60 mg/kg b.w. After 30 days since administration of streptozocin blood glucose level was checked and only rats with the blood glucose levels of over 250 mg % were qualified for the experiment.”, “CNV” for “diabetes”

[4] abbreviates: rats with streptozocin diabetes.
The mark [5] stands for this setting: rats with central retinal vein occlusion.

The values that follow come from US11324740B2, “Use of agonists of type-2 dopaminergic receptors in treatment of conditions caused by elevated vascular endothelial growth factor levels” (priority 2016, dated 2022).

As for `C=CCN1C[C@H](C(=O)N(CCCN(C)C)C(=O)NCC)C[C@@H]2c3cccc4[nH]cc(c34)C[C@H]21` [cabergoline, Cabergoline], the “BRB (permeability of blood-retinal barrier, dextran method)” value was found to be 22.4 ± 7.5 µL/g/min in assay [1] (healthy rats); 35.8 ± 10.6 µL/g/min in assay [1] (setting [4]); 25.1 ± 4.2 µL/g/min in assay [2] (healthy rats); 33.3 ± 12.9 µL/g/min in assay [2] (setting [5]); 28.5 ± 6.6 µL/g/min in assay [3] (healthy rats); 37.4 ± 15.2 µL/g/min in assay [3] (rats with CNV). Further, the “OCT (thickness of the retina)” value came out at 281 ± 14 μm in assay [1] (healthy rats); 320 ± 35 μm in assay [1] (setting [4]); 258 ± 13 μm in assay [2] (healthy rats); 343 ± 28 μm in assay [2] (setting [5]); 221 ± 22 μm in assay [3] (healthy rats); 283 ± 17 μm in assay [3] (rats with CNV).
